# Assay results published in patent US20120258998A1, “Fusion genes in gastrointestinal cancer” (priority 2011, published 2012).
# Like-named read-outs stand apart in the source and are kept apart here.
# Legend:
# Type in all cases: cell-based
# CD44-SLC1A2 fusion gene = assay: RT-PCR of CD44-SLC1A2 expression after fusion-specific siRNA treatment; details: SNU16 cells, siRNA 100 nM, vs scrambled siRNA
# Protocol: (§1) Gastric cancer RNAs were reverse transcribed by SuperScript II reverse transcriptase enzyme using oligo-dT (T18) primers (Invitrogen). To detect CD44-SLC1A2, RT-PCR was performed using forward primers to CD44 exon 1 (5′-[…]-3′ (SEQ ID NO: 3)) and reverse primers to either SLC1A2 exon 3 (5′-[…]-3′ (SEQ ID NO: 4)); exon4 (5′-[…]-3′) (SEQ ID NO: 5); exons (5′-[…]-3′ (SEQ ID NO: 6)) or exon 6 (5′[…]-3′ (SEQ ID NO: 7)). Products were resolved by gel electrophoresis and bands of interest excised and cloned for subsequent analysis. To evaluate wild-type CD44 and SLC1A2 expression independently of CD44-SLC1A2, we used CD44 primers targeting exons 3, 4, 5; and SLC1A2 primers targeting exon 1. CD44-SLC1A2 RT-PCR involving clinical specimens (FIG. 1) was performed in an unselected cohort of gastric cancer patients. Reactions were repeated a minimum of three independent times.
# (§2) Gastric cancer cells were transfected with either specific siRNAs targeted to the CD44-SLC1A2 fusion site (100 nM, custom siRNA siGENOME with SMART selection, Dharmacon) or negative control scrambled siRNAs using siPORT™ NeoFX™ transfection reagent (Applied Biosystem) in Optimem Medium (Invitrogen) following the manufacturer's protocol. After 24, 48, and 72 hours siRNA treatment, cells were subjected for downstream analysis. […]
# [1] = system: wild-type CD44 and SLC1A2; assay: RT-PCR of wild-type CD44 and SLC1A2 expression after fusion-specific siRNA treatment; details: SNU16 cells
# Protocol: as §1, §2
# SLC1A2 protein [2] = assay: Western blotting with anti-SLC1A2 antibodies, SNU16 membrane fraction; details: after fusion-specific siRNA
# Protocol: Cells were harvested in lysis buffer (10 mM Tris.Cl pH 7.5, 150 mM NaCl, 1% Triton X-114) for 1 hour at […], and centrifuged at 800 g. Supernatants were incubated at 30° C. for 5-10 min and further centrifuged at RT, 300 g. Western blotting was performed on membrane fractions using the following antibodies and dilutions: 1:500 SLC1A2/EAAT2 (Cell Signaling Technologies), 1:2000 α-tubulin (Cell Signaling Technologies). Experiments were repeated a minimum of three independent times.
# (§3) Gastric cancer cells were transfected with either specific siRNAs targeted to the CD44-SLC1A2 fusion site (100 nM, custom siRNA siGENOME with SMART selection, Dharmacon) or negative control scrambled siRNAs using siPORT™ NeoFX™ transfection reagent (Applied Biosystem) in Optimem Medium (Invitrogen) following the manufacturer's protocol. After 24, 48, and 72 hours siRNA treatment, cells were subjected for downstream analysis. For overexpression studies, the full length coding regions of CD44-SLC1A2 cDNA were inserted into the pEGFP-N1 vector. Control vectors or fusion-GFP vectors were introduced into HFE145 cells, and stable transfectants were selected using puromycin for 4 weeks.
# SLC1A2 protein [3] = assay: Immunofluorescence staining with SLC1A2 antibodies; details: SNU16 cells, control vs fusion silenced
# Protocol: as §3
# Cells were fixed with 3.7% formaldehyde followed by permeabilisation using 0.1% Triton X-100. After 3× washes with 1×PBS, cells were blocked with 1% BSA. Subsequently, cells were incubated with primary SLC1A2 antibodies (Cell Signaling Technology) for 2 hours followed by 2 hours secondary antibody (Sigma) incubation. Images were taken using a Nikon Eclipse TE2000-U microscope.
# SNU16 cells [4] = assay: Cell proliferation assay, SNU16; details: vs scrambled/control siRNA
# Protocol: as §3
# (§4) Cell proliferation assays were performed using a CellTiter-96 Aqueous Nonradioactive Cell Proliferation Assay kit (Promega) following the manufacturer's instructions and the plates were measured by PerkinElmer plate reader. Cell invasion assays were performed using Biocoat™ Matrigel™ invasion chambers with 8 μm pore filter inserts (BD Bioscience). 48 hours after transfection, 5×10^4 cells were transferred to the upper matrigel chamber in 500 μl of serum-free medium and incubated for 24 hours. Invading cells were counted using light microscopy. Each assay was performed in triplicate, and the results were averaged over three independent experiments.
# SNU16 cells [5] = assay: Colony formation assay, SNU16; details: vs scrambled siRNA
# Protocol: as §3
# Base layers of 0.5% Gum Agar in 1× McCoy's 5 A and 10% FBS were poured into 6-well plates and allowed to harden at 4° C. After 48 hours siRNA transfection, 50,000 cells/well were seeded in complete media plus agar mixture at 42° C. and seeded on top of the solidified base layer. Plates were incubated at 37° C. in for 3-4 weeks, during which plates were fed drop-wise with complete media. After 3-4 weeks, plates were photographed using the Kodak GL 200 System (EpiWhite illumination). Each assay was performed in triplicate, and the results were averaged over three independent experiments.
# SNU16 cells [6] = assay: Matrigel cell invasion assay, SNU16; details: vs control
# Protocol: as §3, §4
# AGS cells = assay: Cell proliferation assay, AGS fusion negative cells
# Protocol: Gastric cancer cells were transfected with either specific siRNAs targeted to the CD44-SLC1A2 fusion site (100 nM, custom siRNA siGENOME with SMART selection, Dharmacon) or negative control scrambled siRNAs using siPORT™ NeoFX™ transfection reagent (Applied Biosystem) in Optimem Medium (Invitrogen) following the manufacturer's protocol. After 24, 48, and 72 hours siRNA treatment, cells were subjected for downstream analysis. For overexpression studies, the full length coding regions of CD44-SLC1A2 cDNA were inserted into the pEGFP-N1 vector. Control vectors or fusion-GFP vectors were introduced into HFE145 cells, and stable transfectants were selected using puromycin for 4 weeks. Cell proliferation assays were performed using a CellTiter-96 Aqueous Nonradioactive Cell Proliferation Assay kit (Promega) following the manufacturer's instructions and the plates were measured by PerkinElmer plate reader. Cell invasion assays were performed using Biocoat™ Matrigel™ invasion chambers with 8 μm pore filter inserts (BD Bioscience). 48 hours after transfection, 5×10^4 cells were transferred to the upper matrigel chamber in 500 μl of serum-free medium and incubated for 24 hours. Invading cells were counted using light microscopy. Each assay was performed in triplicate, and the results were averaged over three independent experiments. […]
# SNU16 cells [7] = assay: 5-Fluorouracil sensitivity, MTS proliferation assay; details: SNU16 cells before and after CD44-SLC1A2 siRNA1 silencing, vs scrambled siRNA
# Protocol: (§5) Gastric cancer cells and primary tissues were lysed with glutamate assay buffer and glutamate concentrations were determined using a Glutamate Assay Kit (BioVision, USA). Briefly, to each cellular lysate, a vendor-provided glutamate Enzyme Mix was added which recognizes glutamate as a specific substrate leading to proportional color development. For cisplatin treatments, cells were seeded into 96 well plates after siRNA transfection. Subsequently, cisplatin or 5-FU at increasing dosages were added (0-1 mM) to respective wells. Cells were subjected to MTS proliferation assays after 48 hours of drug treatment. Each assay was performed in triplicate, and the results were averaged over three independent experiments.
# SNU16 cells [8] = assay: Cisplatin sensitivity, MTS proliferation assay; details: 48 hours of drug treatment, read-out: GI50 (concentration required to cause 50% growth inhibition)
# Protocol: as §5
compound,measurement,setting,value
"siRNA2: second siRNA targeting the CD44-SLC1A2 fusion site, 5′-GCACAUCGUGCCAACAAUAUU-3′ (SEQ ID NO: 28) (chemistry not given here)",CD44-SLC1A2 expression,CD44-SLC1A2 fusion gene,Reduction of CD44-SLC1A2 expression
same,independent (regular) CD44 and SLC1A2 expression,[1],without impairing regular CD44 and SLC1A2 expression
same,SLC1A2 protein expression (Western blotting),SLC1A2 protein [2],knockdown of SLC1A2 protein expression
same,membranous expression of SLC1A2 (immunofluorescence),SLC1A2 protein [3],significantly reduced
same,proliferation rate,SNU16 cells [4],significant decrease in proliferation rate
same,colony formation (anchorage-independent growth),SNU16 cells [5],reduction in numbers of colonies formed
same,cell invasion rate,SNU16 cells [6],significant reduction of invasion rate
same,proliferation of AGS cells after fusion-specific siRNA,AGS cells,proliferation of AGS cells is not affected
"siRNA1: siRNA targeting the CD44-SLC1A2 fusion site, 5′-CGCAGAUCGUGCCAACAAUUU-3′ (SEQ ID NO: 27) (chemistry not given here)",proliferation of AGS cells after fusion-specific siRNA,AGS cells,proliferation of AGS cells is not affected
O=c1[nH]cc(F)c(=O)[nH]1 [5-fluorouracil],"5-Fluorouracil sensitivity, control vs CD44-SLC1A2 silenced cells",SNU16 cells [7],no differences between control and silenced cells were observed
same,"5-Fluorouracil sensitivity, control vs CD44-SLC1A2 silenced cells",SNU16 cells [7]; listed as 5-Fluorouracil,no significant change in sensitivity to 5-Fluorouracil
N.N.[Cl][Pt][Cl] [cisplatin],GI50,SNU16 cells [8]; SNU16 cells after CD44-SLC1A2 siRNA treatment,3.96 µM
same,GI50,SNU16 cells [8]; control SNU16 cells,11.8 µM
